The source of these data is the supplement of paper PMC12076712.

What all share (assay): pIC50, kinobeads binding competition
One assay deals with DYRK1A (UniProt Q13627). An outline of the steps: (§1)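 To obtain pIC50, fold changes versus vehicle were fitted to logistic dose-response curves (R drc package) across biological duplicates. Protein binding to Kinobeads was quantified by TMT10 LC-MS/MS of digested bead-bound proteins. Treatments used nine concentrations with a top of 30 μM, applied to live Jurkat cells in 1:4 steps for 60 min at 37 °C before lysis, or to Jurkat lysate or a 1:1:1:1 HEK293/K-562/HepG2/placenta lysate mix in 1:5 steps for 60 min at 4 °C.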

For another assay, the target named is MAP4K5 (UniProt Q9Y4K4). An outline of the steps:
as §1

For a further assay, the target named is TGFBR2 (UniProt P37173). The procedure, abridged: as §1
Chain of TGFBR2 (P37173 whole entry): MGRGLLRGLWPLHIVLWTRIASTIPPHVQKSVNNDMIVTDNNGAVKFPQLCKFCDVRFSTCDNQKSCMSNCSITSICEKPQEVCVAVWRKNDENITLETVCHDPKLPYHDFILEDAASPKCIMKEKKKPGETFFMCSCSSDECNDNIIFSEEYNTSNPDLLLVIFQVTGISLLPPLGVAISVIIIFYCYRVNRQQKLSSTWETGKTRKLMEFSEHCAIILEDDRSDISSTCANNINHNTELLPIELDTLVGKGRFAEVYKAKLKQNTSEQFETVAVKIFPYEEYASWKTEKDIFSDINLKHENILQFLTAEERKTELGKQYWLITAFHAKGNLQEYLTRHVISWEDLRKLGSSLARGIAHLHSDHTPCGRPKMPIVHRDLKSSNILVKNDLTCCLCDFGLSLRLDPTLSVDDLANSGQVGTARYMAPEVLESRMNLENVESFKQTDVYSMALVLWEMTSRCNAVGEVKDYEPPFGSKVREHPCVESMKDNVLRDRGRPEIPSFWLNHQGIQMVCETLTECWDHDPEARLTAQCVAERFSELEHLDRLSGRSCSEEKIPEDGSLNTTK
The target in the next assay is T1, ULK1 (UniProt O75385).
T1 sequence (whole entry): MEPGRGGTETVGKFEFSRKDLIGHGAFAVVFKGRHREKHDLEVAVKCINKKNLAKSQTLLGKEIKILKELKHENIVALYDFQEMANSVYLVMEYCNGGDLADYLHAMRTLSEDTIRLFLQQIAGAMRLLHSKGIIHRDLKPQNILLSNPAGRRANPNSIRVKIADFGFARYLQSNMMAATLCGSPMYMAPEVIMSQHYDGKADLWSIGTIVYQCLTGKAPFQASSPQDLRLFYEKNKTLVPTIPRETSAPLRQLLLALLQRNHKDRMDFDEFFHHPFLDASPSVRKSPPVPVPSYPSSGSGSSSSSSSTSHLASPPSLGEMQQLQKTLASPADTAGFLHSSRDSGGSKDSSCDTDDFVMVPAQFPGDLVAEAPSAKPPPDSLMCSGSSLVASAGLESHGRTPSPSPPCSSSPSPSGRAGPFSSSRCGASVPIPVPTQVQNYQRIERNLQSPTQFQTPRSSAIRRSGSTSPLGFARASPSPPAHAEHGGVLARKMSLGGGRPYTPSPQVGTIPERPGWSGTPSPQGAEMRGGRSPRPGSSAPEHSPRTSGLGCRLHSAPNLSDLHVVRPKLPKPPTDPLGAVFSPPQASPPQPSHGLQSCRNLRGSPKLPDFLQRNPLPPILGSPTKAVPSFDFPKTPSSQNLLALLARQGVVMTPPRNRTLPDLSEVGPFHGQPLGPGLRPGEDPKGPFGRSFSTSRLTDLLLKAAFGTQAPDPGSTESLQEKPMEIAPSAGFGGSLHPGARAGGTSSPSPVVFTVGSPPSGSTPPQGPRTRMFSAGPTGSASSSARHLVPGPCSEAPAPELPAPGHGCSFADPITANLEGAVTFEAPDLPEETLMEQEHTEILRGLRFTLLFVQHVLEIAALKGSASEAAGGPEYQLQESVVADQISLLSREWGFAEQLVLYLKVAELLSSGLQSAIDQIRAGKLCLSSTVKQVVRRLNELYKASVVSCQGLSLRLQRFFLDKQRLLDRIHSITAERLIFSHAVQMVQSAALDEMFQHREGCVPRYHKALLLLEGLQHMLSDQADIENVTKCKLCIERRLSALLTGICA
The procedure, abridged: as §1

In the next assay the target is T2, UniProt O94768.
T2 sequence (whole entry): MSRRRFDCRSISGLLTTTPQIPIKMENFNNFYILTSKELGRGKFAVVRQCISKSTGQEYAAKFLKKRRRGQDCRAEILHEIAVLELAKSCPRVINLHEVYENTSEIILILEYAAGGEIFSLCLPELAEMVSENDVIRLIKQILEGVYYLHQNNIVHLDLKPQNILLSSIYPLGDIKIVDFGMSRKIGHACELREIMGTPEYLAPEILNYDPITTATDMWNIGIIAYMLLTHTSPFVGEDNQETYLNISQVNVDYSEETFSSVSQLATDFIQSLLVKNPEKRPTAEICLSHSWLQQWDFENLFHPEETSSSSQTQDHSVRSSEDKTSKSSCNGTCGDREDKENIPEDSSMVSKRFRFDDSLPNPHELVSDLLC
The procedure, abridged:
as §1

A further assay addresses UniProt Q9HBH9. The procedure, abridged:
as §1

Usually pIC50 stands for the IC50 on a negative log10 scale, so that one unit is a factor of ten. Low values mean a large IC50, high ones a small IC50.

Chain of UniProt Q9HBH9 (Q9HBH9 whole entry, looked up): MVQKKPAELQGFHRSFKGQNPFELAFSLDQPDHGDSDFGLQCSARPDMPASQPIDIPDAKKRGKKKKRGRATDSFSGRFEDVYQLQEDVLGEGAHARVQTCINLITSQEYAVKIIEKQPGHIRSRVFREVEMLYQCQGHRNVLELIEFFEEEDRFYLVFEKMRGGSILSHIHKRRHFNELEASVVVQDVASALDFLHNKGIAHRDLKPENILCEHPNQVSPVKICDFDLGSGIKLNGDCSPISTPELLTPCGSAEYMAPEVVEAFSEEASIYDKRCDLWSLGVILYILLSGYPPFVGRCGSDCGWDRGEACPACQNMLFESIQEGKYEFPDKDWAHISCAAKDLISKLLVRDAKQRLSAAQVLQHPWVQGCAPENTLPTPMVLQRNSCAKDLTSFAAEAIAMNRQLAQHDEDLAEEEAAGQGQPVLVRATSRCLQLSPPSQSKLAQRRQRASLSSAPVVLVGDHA
Chain of MAP4K5 (Q9Y4K4 whole entry, looked up): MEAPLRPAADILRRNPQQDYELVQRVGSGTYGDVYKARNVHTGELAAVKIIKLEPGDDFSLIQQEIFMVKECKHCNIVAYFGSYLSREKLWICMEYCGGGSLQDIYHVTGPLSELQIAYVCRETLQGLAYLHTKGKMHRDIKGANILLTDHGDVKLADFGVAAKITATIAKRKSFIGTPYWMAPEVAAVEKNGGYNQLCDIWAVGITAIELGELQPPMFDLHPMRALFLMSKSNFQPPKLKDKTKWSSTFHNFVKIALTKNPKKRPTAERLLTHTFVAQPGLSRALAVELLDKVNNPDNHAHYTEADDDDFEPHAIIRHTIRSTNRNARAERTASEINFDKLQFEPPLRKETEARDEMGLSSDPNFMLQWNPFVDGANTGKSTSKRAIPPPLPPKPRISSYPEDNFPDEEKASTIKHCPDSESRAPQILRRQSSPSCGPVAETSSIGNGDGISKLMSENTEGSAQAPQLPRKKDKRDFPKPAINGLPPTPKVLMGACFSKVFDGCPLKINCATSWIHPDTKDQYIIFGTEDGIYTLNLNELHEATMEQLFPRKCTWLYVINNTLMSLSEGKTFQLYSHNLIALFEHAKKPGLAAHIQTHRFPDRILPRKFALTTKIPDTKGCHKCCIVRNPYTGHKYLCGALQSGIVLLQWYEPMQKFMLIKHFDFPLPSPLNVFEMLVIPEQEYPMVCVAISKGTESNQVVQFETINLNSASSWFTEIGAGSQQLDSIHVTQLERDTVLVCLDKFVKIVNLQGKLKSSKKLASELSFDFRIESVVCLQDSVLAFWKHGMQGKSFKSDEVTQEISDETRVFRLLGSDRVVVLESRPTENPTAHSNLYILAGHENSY

For `C#CCNC(=O)c1cc(Nc2cc(C)[nH]n2)nc(N2CCN(Cc3ccc(S(=O)(=O)F)cc3)CC2)n1`, the pIC50 is under 4.52 on DYRK1A (cell material: Lysate mix); 5.53 at MAP4K5 (cell material: Lysate mix); under 4.52 at TGFBR2 (cell material: Lysate mix); under 4.52 on ULK1 (cell material: Lysate mix); under 4.52 on UniProt O94768 (cell material: Lysate mix); under 4.52 at UniProt Q9HBH9 (cell material: Lysate mix).
`O=C(NCCNC(=O)c1cc(Nc2cc(C3CC3)[nH]n2)nc(N2CCN(Cc3ccc(S(=O)(=O)F)cc3)CC2)n1)OC1CC/C=C/CCC1` (stereo not given): the pIC50 is under 4.52 at DYRK1A (cell material: Jurkat cells); under 4.52 at DYRK1A (cell material: Jurkat lysate); under 4.52 at DYRK1A (cell material: Lysate mix); 5.8 at MAP4K5 (cell material: Jurkat cells); under 4.52 at MAP4K5 (cell material: Jurkat lysate); under 4.52 on MAP4K5 (cell material: Lysate mix). In addition, the pIC50 at TGFBR2 (cell material: Jurkat cells), at TGFBR2 (cell material: Jurkat lysate), on TGFBR2 (cell material: Lysate mix), at ULK1 (cell material: Jurkat lysate), on ULK1 (cell material: Lysate mix) and on UniProt O94768 (cell material: Jurkat cells) was under 4.52 throughout. The pIC50 on UniProt O94768 (cell material: Jurkat lysate), at UniProt O94768 (cell material: Lysate mix), at UniProt Q9HBH9 (cell material: Jurkat lysate) and at UniProt Q9HBH9 (cell material: Lysate mix) was under 4.52 in each case.
On to `CCNC(=O)c1cc(Nc2cc(C3CC3)[nH]n2)nc(N2CCN(Cc3ccc(S(=O)(=O)F)cc3)CC2)n1`, for which the pIC50 was under 4.52 on DYRK1A (cell material: Lysate mix); 5.77 on MAP4K5 (cell material: Lysate mix); under 4.52 on TGFBR2 (cell material: Lysate mix); 4.9 at ULK1 (cell material: Lysate mix); under 4.52 on UniProt O94768 (cell material: Lysate mix); under 4.52 on UniProt Q9HBH9 (cell material: Lysate mix).
In the case of `Cc1cc(Nc2cc(C(=O)NCCNC(=O)OC3CC/C=C/CCC3)nc(N3CCN(Cc4ccc(S(=O)(=O)F)cc4)CC3)n2)n[nH]1` (stereo not given), the pIC50 on DYRK1A (cell material: Lysate mix), at MAP4K5 (cell material: Lysate mix), on TGFBR2 (cell material: Lysate mix), at ULK1 (cell material: Lysate mix), on UniProt O94768 (cell material: Lysate mix) and on UniProt Q9HBH9 (cell material: Lysate mix) was under 4.52 each time.
With `CCNC(=O)c1cc(Nc2cc(C)[nH]n2)nc(N2CCN(Cc3ccc(S(=O)(=O)F)cc3)CC2)n1`, the pIC50 on DYRK1A (cell material: Lysate mix) was under 4.52; on MAP4K5 (cell material: Lysate mix), 5.33; on TGFBR2 (cell material: Lysate mix), under 4.52; on ULK1 (cell material: Lysate mix), under 4.52; on UniProt O94768 (cell material: Lysate mix), under 4.52; at UniProt Q9HBH9 (cell material: Lysate mix), under 4.52.
Regarding `C#CCNC(=O)c1cc(Nc2cc(C3CC3)[nH]n2)nc(N2CCN(Cc3ccc(S(=O)(=O)F)cc3)CC2)n1`, the pIC50 at DYRK1A (cell material: Jurkat cells) was 5.41; at DYRK1A (cell material: Jurkat lysate), under 4.52; at MAP4K5 (cell material: Jurkat cells), 6.45; at MAP4K5 (cell material: Jurkat lysate), 5.53; on MAP4K5 (cell material: Lysate mix), 6.21; on TGFBR2 (cell material: Jurkat cells) it was 5.5. Further, the pIC50 on TGFBR2 (cell material: Jurkat lysate) was under 4.52; on TGFBR2 (cell material: Lysate mix), under 4.52; on ULK1 (cell material: Jurkat lysate), under 4.52; at ULK1 (cell material: Lysate mix) it was 4.85; at UniProt O94768 (cell material: Jurkat lysate), under 4.52; at UniProt O94768 (cell material: Lysate mix), under 4.52. In addition, the pIC50 is 5.15 on UniProt Q9HBH9 (cell material: Jurkat cells), under 4.52 on UniProt Q9HBH9 (cell material: Jurkat lysate) and under 4.52 on UniProt Q9HBH9 (cell material: Lysate mix).
